Where a name gives a salt, the structure may show the parent alone.
tested on: adults with ADHD; test: not given; settings: person, ADHD; 37.5 mg oxycarbamazepine added to dexamphetamine 40 mg and 'sodium to operate' 400 mg daily
Experimental: In the clinical setting a number of adults with ADHD experienced a combination therapy of stimulant medication (dexamphetamine) in combination with sodium valproate (VPA). The initial dosages used were from 15 to 70 mg/day of dexamphetamine and from 100 to 700 mg/day of VPA (Epilim) (=approximately 2 to 10 mg/kg/day).
The determination of the dose for the dexamphetamine was undertaken in a clinical sensitive open label manner. The dose was titrated upwards dependent on the clinical response and the freedom from side-effects. The dose range was between 15 and 70 mg a day. The frequency of the dosing also varied dependent upon the clinical response. The usual dose interval was between two to four hours. This dosing adjustment took place prior to the commencement of the sodium valproate. The sodium valproate medication was initiated once a day at 50 mg tablet or elixir and titrated upwards dependent on response, but not more than one increase every three days. The dose was given as a once or twice a day regime. During the titration phase, if clinically possible, no other adjustments to the pharmacotherapy were undertaken.

| SMILES | clinical outcome (case) |
| --- | --- |
| NC(=O)N1c2ccccc2CC(=O)c2ccccc21 [Oxcarbazepine] | significant improvement in their cognitive functioning |

same assay, conditions: person; oxycarbamazepine dose increased to 75 mg

| SMILES | clinical outcome (case) |
| --- | --- |
| NC(=O)N1c2ccccc2CC(=O)c2ccccc21 [Oxcarbazepine] | improved again |

same assay, conditions: person; switched to carbamazepine

| SMILES | clinical outcome (case), compared with oxycarbamazepine |
| --- | --- |
| NC(=O)N1c2ccccc2C=Cc2ccccc21 [Carbamazepine] | less effective |

tested on: mood stabilisation or epileptic symptoms or events; test: not given; settings: in vivo; cited from earlier work

| SMILES | typical dose for treating epileptic seizures |
| --- | --- |
| NC(=O)N1c2ccccc2C=Cc2ccccc21 [Carbamazepine] | 400 to 800 mg/day |

same assay, conditions: usual minimum anti-convulsant dose per day; cited from earlier work

| SMILES | Minimum Dose/day effective for mood stabilisation or treatment of epileptic symptoms or events |
| --- | --- |
| CCC1(c2ccc(N)cc2)CCC(=O)NC1=O (stereo not shown) [Aminoglutethimide] | 125 mg |
| CCC1(c2ccccc2)C(=O)NC(=O)NC1=O.CNC(C)CC1CCCCC1 [Barbexaclone] | 200 mg in divided doses |
| CCC[C@@H]1CC(=O)N([C@@H](CC)C(N)=O)C1 [Brivaracetam] | 100 mg |
| NC(=O)N1c2ccccc2C=Cc2ccccc21 [Carbamazepine] | 400 mg |
| O=C1CN=C(c2ccccc2Cl)c2cc([N+](=O)[O-])ccc2N1 [Clonazepam] | 1 mg |
| CCN1C(=O)OC(C)(C)C1=O [Ethadione] | 1000 mg |
| CCC1(C)CC(=O)NC1=O (stereo not shown) [Ethosuximide] | 1000 mg |
| CCN1C(=O)NC(c2ccccc2)C1=O (stereo not shown) [Ethotoin] | 1000 mg |
| NC(=O)OCC(COC(N)=O)c1ccccc1 [Felbamate] | 1200 mg |
| O=C1NC(c2ccccc2)(c2ccccc2)C(=O)N1COP(=O)(O)O [Fosphenytoin Sodium] | 10 mg/kg |
| NCC1(CC(=O)O)CCCCC1 [Gabapentin, 2-[1-(aminomethyl)cyclohexyl]acetic acid] | 900 mg |
| COC[C@@H](NC(C)=O)C(=O)NCc1ccccc1 [Lacosamide] | 200 mg |
| Nc1nnc(-c2cccc(Cl)c2Cl)c(N)n1 [Lamotrigine, 3,5-diamino-6-(2,3-dichlorophenyl)-1,2,4-triazine] | 100 mg |
| CC[C@@H](C(N)=O)N1CCCC1=O [Levetiracetam] | 1000 mg |
| COC1=CC(=O)OC1C(O)c1ccccc1Cl (stereo not shown) [Losigamone] | 1500 mg |
| CCC1(c2ccccc2)NC(=O)N(C)C1=O (stereo not shown) [Mephenytoin] | 200 mg |

| SMILES | Minimum Dose/day effective for mood stabilisation or treatment of epileptic symptoms or events |
| --- | --- |
| CCC1(c2ccccc2)NC(=O)N(C)C1=O (stereo not shown) [Methoin] | 1000 mg |
| CN1C(=O)CC(C)(c2ccccc2)C1=O (stereo not shown) [Methsuximide] | 300 mg |
| NC(=O)N1c2ccccc2CC(=O)c2ccccc21 [Oxcarbazepine] | 600 mg |
| CCC1(C)OC(=O)N(C)C1=O (stereo not shown) [Paramethadione] | 300 mg |
| N#Cc1ccccc1-c1cc(-c2ccccn2)cn(-c2ccccc2)c1=O [Perampanel] | 2 mg |
| NC(=O)NC(=O)Cc1ccccc1 [Phenacemide] | 500 mg |
| CCC(C(=O)NC(N)=O)c1ccccc1 (stereo not shown) [Pheneturide] | 600 mg |
| CN1C(=O)CC(c2ccccc2)C1=O (stereo not shown) [Phensuximide] | 1000 mg |
| CC(C)C[C@H](CN)CC(=O)O [Pregabalin, (S)-3-(aminomethyl)-5-methylhexanoic acid] | 300 mg |
| CCC1(c2ccccc2)C(=O)NCNC1=O [Primidone] | 750 mg |
| NS(=O)(=O)c1ccc(N2CCCCS2(=O)=O)cc1 [Sultiame] | 200 mg |
| Cc1ccsc1C(=CCCN1CCC[C@@H](C(=O)O)C1)c1sccc1C [Tiagabine Hydrochloride] | 30 mg |
| CN1C(=O)OC(C)(C)C1=O [Trimethadione] | 900 mg |
| C=CC(N)CCC(=O)O (stereo not shown) [Vigabatrin] | 1000 mg |
| NS(=O)(=O)Cc1noc2ccccc12 [Zonisamide] | 200 mg |

same assay, conditions: usual minimum anti-convulsant dose; cited from earlier work

| SMILES | Minimum Dose/day effective for mood stabilisation or treatment of epileptic symptoms or events |
| --- | --- |
| CN1C(=O)CC(=O)N(c2ccccc2)c2cc(Cl)ccc21 [Clobazam] | 5 mg/kg daily |

tested on: individuals with developmental dyspraxia / poor coordination; test: Treatment of developmental dyspraxia, clinical observation; format: in vivo, human; settings: person, ADHD; dexamphetamine 25 mg daily augmented with atomexetine 60 mg and sodium valproate 150 mg
Text: Many of the individuals treated at this clinic, with a diagnosis of ADHD and/or pervasive development disorder such Asperger's Syndrome or autism also present with symptoms consistent with a diagnosis of a developmental coordination disorder. They are often described as ‘unco’ (unco-ordinated) by their peers and experience victimization, poor self-esteem and frustration as a consequence of their poor coordination. […] Individuals have described a sense of having more time to coordinate movements and to understand and integrate their own activity appropriately within a team sport such as soccer, which has previously eluded them. Individuals have felt frustration at being able to practise repeatedly an activity or skill only to be unable to put it into practice when required, within the play of a match. It is proposed that individuals were previously unable to process and plan their own coordination but remain aware of the general activity in which they were participating.

| SMILES | clinical outcome (case) |
| --- | --- |
| CNCC[C@@H](Oc1ccccc1C)c1ccccc1 [atomexetine, (3R)—N-methyl-3-(2-methylphenoxy)-3-phenyl-propan-1-amine] | Significant improvement in psychosocial functioning |

From patent US10028971B2, “Compositions and methods for treating psychiatric disorders” (GOSFORTH CENTRE (HOLDINGS) PTY LTD., priority 2008, dated 2018)
